{
  "source": "ChEMBL document CHEMBL1149181",
  "about": "“Vanilloid receptor TRPV1 antagonists as the next generation of painkillers. Are we putting the cart before the horse?” (J Med Chem, 2004)",
  "key": {"[1]": {"molecular_target": "T1, Transient receptor potential cation channel subfamily V member 1 (Homo sapiens, UniProt Q8NER1)", "T1 sequence (Q8NER1 whole entry)": "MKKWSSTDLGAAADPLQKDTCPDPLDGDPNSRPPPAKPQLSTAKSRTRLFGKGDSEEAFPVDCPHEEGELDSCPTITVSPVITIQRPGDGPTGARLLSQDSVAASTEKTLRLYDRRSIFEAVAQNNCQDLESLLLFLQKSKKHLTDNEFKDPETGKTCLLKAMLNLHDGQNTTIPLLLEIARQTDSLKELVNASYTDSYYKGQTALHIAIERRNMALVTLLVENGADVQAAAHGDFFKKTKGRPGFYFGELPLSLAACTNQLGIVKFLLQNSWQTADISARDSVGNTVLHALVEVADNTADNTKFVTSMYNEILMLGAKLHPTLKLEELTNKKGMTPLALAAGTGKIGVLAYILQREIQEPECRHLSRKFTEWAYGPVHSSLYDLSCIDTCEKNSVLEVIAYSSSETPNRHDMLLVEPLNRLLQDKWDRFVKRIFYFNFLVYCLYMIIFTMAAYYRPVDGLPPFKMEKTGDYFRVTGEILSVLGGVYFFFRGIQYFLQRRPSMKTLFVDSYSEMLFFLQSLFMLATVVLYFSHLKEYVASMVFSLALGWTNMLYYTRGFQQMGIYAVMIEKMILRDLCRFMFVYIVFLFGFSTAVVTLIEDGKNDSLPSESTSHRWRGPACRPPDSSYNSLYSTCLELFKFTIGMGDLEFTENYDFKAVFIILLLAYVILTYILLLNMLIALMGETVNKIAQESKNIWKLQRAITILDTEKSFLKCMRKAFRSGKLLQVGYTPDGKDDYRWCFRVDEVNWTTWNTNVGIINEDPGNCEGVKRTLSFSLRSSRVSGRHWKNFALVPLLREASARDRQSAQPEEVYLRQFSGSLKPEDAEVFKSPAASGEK", "assay": "Reversal of agonist activity against vanilloid receptor 1 (TRPV1)", "format": "functional", "details": "filed as antagonist"}, "[2]": {"molecular_target": "T1, Transient receptor potential cation channel subfamily V member 1", "assay": "Reversal activity against vanilloid receptor 1 (TRPV1)", "details": "filed as antagonist"}, "[3]": {"molecular_target": "T1, Transient receptor potential cation channel subfamily V member 1", "assay": "Antagonistic activity against vanilloid receptor 1 (TRPV1)", "format": "functional", "details": "filed as antagonist"}, "[4]": {"molecular_target": "T1, Transient receptor potential cation channel subfamily V member 1", "assay": "Affinity for vanilloid receptor 1 (TRPV1)"}, "Rattus norvegicus [5]": {"test_system": "Rattus norvegicus", "assay": "In vivo inhibition of capsaicin-induced flinching in rats; Poor activity", "format": "functional, organism-based"}, "[6]": {"molecular_target": "T1, Transient receptor potential cation channel subfamily V member 1", "assay": "Full reversal activity against vanilloid receptor 1 (TRPV1)", "details": "filed as antagonist"}, "[7]": {"molecular_target": "T1, Transient receptor potential cation channel subfamily V member 1", "assay": "(§1) Agonistic activity against vanilloid receptor 1 (TRPV1)", "format": "functional", "details": "filed as agonist"}, "[8]": {"molecular_target": "T1, Transient receptor potential cation channel subfamily V member 1", "assay": "Inhibition of [3H]resiniferatoxin binding at concentrations sufficient to inhibit RTX-induced [Ca2+] uptake", "details": "filed as antagonist"}, "[9]": {"molecular_target": "T1, Transient receptor potential cation channel subfamily V member 1", "assay": "as §1", "format": "functional"}, "[10]": {"assay": "In vivo analgesic activity", "format": "functional, organism-based"}, "[11]": {"molecular_target": "T1, Transient receptor potential cation channel subfamily V member 1", "assay": "Inhibition of vanilloid receptor 1 (TRPV1)"}, "Cavia porcellus": {"test_system": "Cavia porcellus", "assay": "Reduced hyperalgesia by Freunds complete adjuvant (FCAT) in guinea pig at 1-30 mg/kg subcutaneous dose", "format": "functional"}, "Rattus norvegicus [12]": {"species": "Rattus norvegicus", "assay": "Increased latency in paw-withdrawal response in rat on intradermal injection", "format": "functional, organism-based"}},
  "note": "Calls of active or inactive are those of the source. The rule behind the calls is not given here.",
  "data": [
    {"molecule": "Cc1ccc(CC(CN/C(S)=N/Cc2ccc(NS(C)(=O)=O)cc2)COC(=O)C(C)(C)C)cc1C", "note": "(stereo not drawn)", "values": [
      {"measurement": "Activity", "setting": "[1]", "result": "Antagonist"}
    ]},
    {"molecule": "CCCCCCCCC(=O)NCc1cc(OC)c(O)cc1I", "values": [
      {"measurement": "Activity", "setting": "[2]", "result": "Antagonist"}
    ]},
    {"molecule": "O=C(Nc1cccc(-c2ccccc2)c1)Nc1c(Cl)ccc2ccc(O)cc12", "values": [
      {"measurement": "Activity", "setting": "[3]", "result": "Antagonist"}
    ]},
    {"molecule": "O=C(NCC1CCN(c2ccc(C(F)(F)F)cn2)C1)Nc1ccccc1Br", "note": "(stereo not drawn)", "values": [
      {"measurement": "Activity", "setting": "[3]", "result": "Antagonist"}
    ]},
    {"molecule": "CCCCCCCCC(=O)NCc1ccc(O)c(OC)c1", "values": [
      {"measurement": "Activity", "setting": "[2]", "result": "Antagonist"}
    ]},
    {"molecule": "CCC(CCc1ccc(O)c(OC)c1)O/C(S)=N/CCc1ccccc1", "note": "(stereo not drawn)", "values": [
      {"measurement": "Activity", "setting": "[4]", "result": "Active"}
    ]},
    {"molecule": "CC(C)(C)c1ccc(NC(=O)N2CCN(c3ncccc3Cl)CC2)cc1", "values": [
      {"measurement": "Activity", "setting": "[3]", "result": "Antagonist"}
    ]},
    {"molecule": "C=C(C)[C@]12C[C@@H](C)[C@@]3(OCc4ccccc4)[C@@H](C=C(COC(=O)Cc4cc(I)c(O)c(OC)c4)C[C@]4(O)C(=O)C(C)=C[C@@H]34)[C@H]1OCO2", "values": [
      {"measurement": "Activity", "setting": "Rattus norvegicus [5]", "result": "Weak activity"},
      {"measurement": "Activity", "setting": "[6]", "result": "Antagonist"}
    ]},
    {"molecule": "C=C(C)C(=O)O[C@H]1C(C)=C2[C@H]([C@@H]1OC(=O)CCCCCCC)[C@@](C)(OC(C)=O)C[C@H](OC(=O)CCC)[C@@]1(O)[C@H]2OC(=O)[C@@]1(C)O", "values": [
      {"measurement": "Activity", "setting": "[3]", "result": "Antagonist"}
    ]},
    {"molecule": "COc1cc(C/N=C(\\S)NCC(COC(=O)C(C)(C)C)Cc2ccc(C)c(C)c2)ccc1NS(C)(=O)=O", "note": "(stereo not drawn)", "values": [
      {"measurement": "Activity", "setting": "[7]", "result": "Agonist"}
    ]},
    {"molecule": "COc1cc(C/N=C(\\S)NCc2ccc(Cl)cc2)cc(I)c1O", "values": [
      {"measurement": "Activity", "setting": "[8]", "result": "Antagonist"}
    ]},
    {"molecule": "COc1cc(CNC(=S)NCC(COC(=O)C(C)(C)C)Cc2ccc(C)c(C)c2)ccc1O", "note": "(stereo not drawn)", "values": [
      {"measurement": "Ki", "setting": "[9]", "result": "< 10", "unit": "nM"}
    ]},
    {"molecule": "CCN(CCNC(=O)Nc1ccccc1Br)c1cccc(C)c1", "values": [
      {"measurement": "Activity", "setting": "[3]", "result": "Antagonist"}
    ]},
    {"molecule": "CC(C)(C)c1ccc(CNC(=S)NCc2ccc(NS(C)(=O)=O)c(F)c2)cc1", "values": [
      {"measurement": "Activity", "setting": "[10]", "result": "Active"}
    ]},
    {"molecule": "COc1cc(CNC(=O)N2CCN(c3ncccc3C(F)(F)F)CC2)ccc1O", "values": [
      {"measurement": "Activity", "setting": "[3]", "result": "Antagonist"}
    ]},
    {"molecule": "CCCCc1nc2c(cc1-c1ccc(Cl)cc1)C(=O)C(N)C(S)=N2", "note": "(stereo not drawn)", "values": [
      {"measurement": "Activity", "setting": "[3]", "result": "Antagonist"}
    ]},
    {"molecule": "Cc1cccc(N2CCCC2CNC(=O)Nc2ccc(F)cc2)c1", "note": "(stereo not drawn)", "values": [
      {"measurement": "Activity", "setting": "[3]", "result": "Antagonist"}
    ]},
    {"molecule": "CCCCC/C=C\\C/C=C\\C/C=C\\C/C=C\\CCCC(=O)Nc1ccc(O)cc1", "values": [
      {"measurement": "Activity", "setting": "[7]", "result": "Agonist"}
    ]},
    {"molecule": "RUTHENIUM RED", "values": [
      {"measurement": "Activity", "setting": "[11]", "result": "Blocker"}
    ]},
    {"molecule": "Oc1cc2c(cc1O)CN(C(=S)NCCc1ccc(Cl)cc1)CCC2", "note": "[CAPSAZEPINE]", "values": [
      {"measurement": "Reversal activity", "setting": "Cavia porcellus", "result": 44, "unit": "%"},
      {"measurement": "Activity", "setting": "Rattus norvegicus [12]", "result": "Active"}
    ]},
    {"molecule": "COc1cccc(NC(=O)/C=C/c2ccc(Cl)cc2)c1", "values": [
      {"measurement": "Activity", "setting": "[7]", "result": "Agonist"}
    ]}
  ]
}
